From ChEMBL document CHEMBL1138872, “Free radical scavengers from the medicinal mushroom Inonotus xeranticus and their proposed biogenesis” (Bioorg Med Chem Lett, 2006) come the findings set out here.

Assay type in all cases: functional
A short description of assay [1]: DPPH radical scavenging activity.
The nature of assay [2]: Superoxide anion radical scavenging activity by xanthine/xanthine oxidase method.
The nature of assay [3]: ABTS radical scavenging activity.

A value given as a limit tells only on which side of the number the result lay.

Consider `COC1Oc2cc(/C=C/c3ccc(O)c(O)c3)oc(=O)c2-c2cc(O)c(O)cc21` (stereo unspecified) [INOSCAVIN D], for which the figures for the IC50 in assay [1], in assay [2] and in assay [3] were greater than 100 µM, greater than 100 µM and 12.5 µM, respectively.

Regarding `COc1cc(/C=C/c2cc3c(c(=O)o2)-c2cc(O)c(O)cc2C(OC)O3)ccc1O` (stereo unspecified) [METHYLINOSCAVIN D], the IC50 (as a rule, the concentration that gives 50% inhibition) was greater than 100 µM in assay [1], 40.7 µM in assay [2] and 8.7 µM in assay [3].

VITAMIN E: the IC50 is 11.5 µM in assay [1], greater than 100 µM in assay [2] and 8.8 µM in assay [3].

For `O=C(O)/C=C/c1ccc(O)c(O)c1` [CAFFEIC ACID], the IC50 turned out to be 30 µM in assay [1], 2.9 µM in assay [2] and 2.8 µM in assay [3].

With `O=C(O)c1ccc(O)c(O)c1` [PROTOCATECHUIC ACID], the IC50 in assay [1] is 27 µM; in assay [2] it was greater than 100 µM; in assay [3], 15.7 µM.

For `O=Cc1ccc(O)c(O)c1` [PROTOCATECHUALDEHYDE], the IC50 in assay [1] was determined as 29.4 µM; in assay [2] it was 25.3 µM; in assay [3] it was 5 µM.

Take `O=c1oc2cc(/C=C/c3ccc(O)c(O)c3)oc(=O)c2c2cc(O)c(O)cc12` [PHELLIGRIDIN D]: the IC50 is greater than 100 µM in assay [1], greater than 100 µM in assay [2] and 13.7 µM in assay [3].
